# What was measured:
# [1] = system: FCS-stimulated production of superoxides (O2^−) in normal human monocytes; assay: FCS-stimulated superoxide production of normal human monocytes in vitro (INT-formazan); type: cell-based; conditions: for O2^−: FCS 10%
# Procedure: As already described, monocytes were isolated from 50 ml of venous blood which was repeatedly donated voluntarily for the experiments by healthy non-smoking subjects (n=4). […] To this end, the active compounds were incubated together with freshly isolated monocytes (10^5/ml) and the FCS stimulus (10%, from Sigma) for 20 hours in a cell culture medium (RPMI-1640, from Sigma). […] The determination of the cytosolic superoxide production is based on the reduction of the dye p-iodonitrotetrazolium violet (INTV), which reacts specifically with superoxide ions, to iodonitrotetrazolium formazan (formazan). INTV is taken up by the cells into the cytosol. Intracellularly, the nitrogen cycle of the INTV is reduced by free superoxide radicals, giving rise to a water-soluble intermediate and the water-insoluble formazan, which have their absorption maxima at 505 and 490 nm, respectively. […] At the end of an experiment, the cell lysate is (after treatment with hydrochloric acid) measured at 492 nm in a photometer. Here, the absorption of light is proportional to the amount of intracellularly accumulated INT-formazan which can then be determined using a formazan calibration curve. The INT-formazan accumulation for its part is determined as a measure for the intracellular production of superoxide.
# [2] = system: IL-1beta production in LPS-stimulated human monocytes; assay: LPS-stimulated production of IL-1beta in human monocytes in vitro (ELISA); type: cell-based; conditions: for IL-1beta: LPS, 20 hours
# Excerpt: 1,8-Cineol intensifies in particular the action of subtherapeutic concentrations of beclometasone which are relevant for the peripheral respiratory tract.
# [3] = becl. 10^−9 mol/l, Table 5 series
# [4] = becl. 10^−9 mol/l, Table 6 series
# [5] = becl. 10^−10 mol/l, Table 5 series
# [6] = becl. 10^−10 mol/l, Table 6 series
# [7] = becl. 10^−11 mol/l, Table 5 series
# [8] = becl. 10^−11 mol/l, Table 6 series
structure (smiles),measurement,setting,value
C[C@H]1C[C@H]2[C@@H]3CCC4=CC(=O)C=C[C@]4(C)[C@@]3(Cl)[C@@H](O)C[C@]2(C)[C@@]1(O)C(=O)CO [beclometasone],O2^−,[1]; [3],16052 ± 969 nmol/mL
same,O2^−,[1]; [4],17338 ± 1305 nmol/mL
same,Percent of control,[1]; [3],−10 ± 6%
same,Percent of control,[1]; [4],−8 ± 7%
same,O2^−,[1]; [5],16445 ± 903 nmol/mL
same,O2^−,[1]; [6],17577 ± 1191 nmol/mL
same,Percent of control,[1]; [5],−8 ± 5%
same,Percent of control,[1]; [6],−6 ± 7%
same,O2^−,[1]; [7],16562 ± 1081 nmol/mL
same,O2^−,[1]; [8],17639 ± 1372 nmol/mL
same,Percent of control,[1]; [7],−7 ± 6%
same,Percent of control,[1]; [8],−6 ± 8%
same,O2^−,"[1]; beclometasone 10^−6 mol/l, 20 hours, Table 3 series",18240 ± 463 nmol/mL
same,O2^−,"[1]; beclometasone 10^−7 mol/l, 20 hours, Table 3 series",16782 ± 678 nmol/mL
same,Percent of control,"[1]; beclometasone 10^−7 mol/l, vs FCS control, Table 3 series",+5.8 ± 4%
same,O2^−,"[1]; beclometasone 10^−8 mol/l, 20 hours, Table 3 series",16035 ± 639 nmol/mL
same,Percent of control,"[1]; beclometasone 10^−8 mol/l, vs FCS control, Table 3 series",−1.1 ± 4%
same,O2^−,"[1]; beclometasone 10^−9 mol/l, 20 hours, Table 3 series",14192 ± 733 nmol/mL
same,Percent of control,"[1]; beclometasone 10^−9 mol/l, vs FCS control, Table 3 series",−10.5±5%
same,O2^−,"[1]; beclometasone 10^−10 mol/l, 20 hours, Table 3 series",14702 ± 682 nmol/mL
same,Percent of control,"[1]; beclometasone 10^−10 mol/l, vs FCS control, Table 3 series",−7.3 ± 5%
same,O2^−,"[1]; beclometasone 10^−11 mol/l, 20 hours, Table 3 series",15042 + 568 nmol/ml
same,Percent of control,"[1]; beclometasone 10^−11 mol/l, vs FCS control, Table 3 series",−5.1 ± 3%
same,effect on the O2^− production,"[1]; beclometasone 10^−11 to 10^−9 mol/l on its own, Table 6 series",no detectable effect on the O2^− production
same,O2^−,"[1]; beclometasone 10^−12 mol/l, 20 hours, Table 3 series",15050 ± 455 nmol/mL
same,Percent of control,"[1]; beclometasone 10^−12 mol/l, vs FCS control, Table 3 series",−5.1 ± 3%
same,monocyte O2^− production,"[1]; high concentrations (10^−8 mol/l and above) of beclometasone, FIG. 4",stimulated the monocyte O2^− production
same,Effect vs. cineol 10^−6 mol/l Inhibition (%),[2]; beclometasone 10^−9 mol/l,25.2 ± 20%
same,Effect vs. control Inhibition (%),[2]; beclometasone 10^−9 mol/l,49.4 ± 20%
same,IL-1beta,[2]; beclometasone 10^−9 mol/l,2654 ± 545 Pg/5 × 10^4 cells
same,Effect vs. control Inhibition (%),[2]; beclometasone 10^−10 mol/l,22.9 ± 23%
same,"production of IL-1beta, change",[2]; beclometasone 10^−10 mol/l,−22.9%
same,Effect vs. cineol 10^−6 mol/l Inhibition (%),"[2]; beclometasone 10^−10 mol/l, (+) in brackets = more IL-1beta than with cineol",(+14 ± 23) %
same,IL-1beta,[2]; beclometasone 10^−10 mol/l,4047 ± 940 Pg/5 × 10^4 cells
same,Effect vs. control Inhibition (%),[2]; beclometasone 10^−11 mol/l,19.7 ± 20%
same,"production of IL-1beta, change",[2]; beclometasone 10^−11 mol/l,−19.7%
same,Effect vs. cineol 10^−6 mol/l Inhibition (%),"[2]; beclometasone 10^−11 mol/l, (+) in brackets = more IL-1beta than with cineol",(+18.9 ± 20) %
same,IL-1beta,[2]; beclometasone 10^−11 mol/l,4217 ± 864 Pg/5 × 10^4 cells
same,Effect vs. control Inhibition (%),[2]; beclometasone 10^−12 mol/l,0.1 ± 19%
same,"production of IL-1beta, change",[2]; beclometasone 10^−12 mol/l,0%
same,Effect vs. cineol 10^−6 mol/l Inhibition (%),"[2]; beclometasone 10^−12 mol/l, (+) in brackets = more IL-1beta than with cineol",(+47.8 ± 19) %
same,IL-1beta,[2]; beclometasone 10^−12 mol/l,5246 ± 1028 Pg/5 × 10^4 cells
same,inhibition of LPS-stimulated production of IL-1beta,"[2]; beclometasone on its own, concentration not given",49.9±20%

# — patent publication US11123323B2, “Monoterpenes for treating respiratory disorders, in particular bronchopulmonary disorders” (Maria Clemetine Martin Klosterfrau Vertriebsqesellschaft MBH, priority 2008, dated 2021)
